# Test results: ChEMBL document CHEMBL3507680, “University of Dundee, Gates Library screen for HepG2 cell viability”
# Assay: Human HepG2 cell viability assay in 384 well format
# Format: toxicity, cell-based
# Set-up: dose 125 nL, time 70.5 hour; cytotoxicity at 70.5 h: concentration not given beside the values
# Settings: HepG2 cells, read-out: Inhibition
row,SMILES,cytotoxicity at 70.5 h [%]
1,Cc1ccc(-c2nnc(SCC(=O)O)n2-c2ccc(C)cc2)cc1,-15.4
2,CC(C)N1CCC(Cc2cncc(-c3ccccc3C(=O)O)n2)CC1,-17.6
3,CC1(C(=O)N2CCOCC2)CN(Cc2ccccc2F)CCO1 (stereo not drawn),-11.3
4,COCC(=O)N1CCCC1c1cc(Nc2nnc(C)s2)nc(C)n1 (stereo not drawn),21.4
5,Cc1noc(C)c1-c1cncc(C2CCCN2Cc2cncnc2)n1 (stereo not drawn),-20.4
6,Cc1nonc1C(=O)N1CCCC(c2ncncc2-c2ccncc2)C1 (stereo not drawn),-28.8
7,Cc1cc(-c2cnc(NC3CC3)nc2-c2ccc(C)o2)on1,-9.8
8,Cc1cc(-c2cnc(N3CCNC(=O)C3)nc2-c2ccc(C)o2)on1,-16.3
9,c1cnc(-c2cnc(N3CCSCC3)nc2C2CC2)cn1,-15.9
10,Cn1cc(CN2CCc3c(nc(-c4ccccn4)[nH]c3=O)C2)cn1,-23.4
11,CC(=O)N1CCC(Cc2cnc(-c3c(C)nn(C)c3C)cn2)C1 (stereo not drawn),-25.8
12,Cc1nc(C2CCCCN2C(=O)c2ccccc2)ncc1C(=O)N(C)C (stereo not drawn),-12
13,Cc1cccc(Nc2nccnc2C2CCCN2CC(=O)N(C)C)n1 (stereo not drawn),18.8
14,CN1CCCCC1c1ncc2c(n1)CCN(Cc1ccccc1Cl)C2 (stereo not drawn),-7.2
15,COc1ccc(CN2CCc3nc(C4CCCCN4C)ncc3C2)cc1 (stereo not drawn),-10.4
16,NC(=O)C1(Cc2ccccc2-c2ccccc2)CCCN(CC2CC2)C1 (stereo not drawn),-14.5
17,CC(C)S(=O)(=O)N1CCC(c2cc3n(n2)[C@@H](C(F)(F)F)C[C@@H](C)N3)C1 (stereo partly drawn),-11
18,O=C(NCC1CC1)Nc1cnc2cc(Cl)ccc2c1O,-1.93
19,COc1ccc2c(O)c(NC(=O)NCC3CC3)cnc2c1,9.51
20,CC1CCCN(Cc2c(C3CCOCC3)[nH]c3ncccc23)C1 (stereo not drawn),26.7
21,O=C(c1ccncc1)N1Cc2ccccc2OC2(CCOCC2)C1,-18.2
22,O=C(O)C1(Cc2cc(-c3ccc(F)cc3F)no2)CCOCC1,20.5
23,Cc1cc2c(=O)n3c(nc2s1)CCN(C(=O)c1scnc1C)CC3,-12.5
24,Cc1cc(-c2cnc(NC3CCCC3)nc2-c2ccoc2C)on1,-8.8

row,SMILES,cytotoxicity at 70.5 h [%]
1,CCN(CC)CCNc1ncc(-c2cc(C)no2)c(-c2ccoc2C)n1,-10.5
2,Cc1ccc(-c2cc(N)c(=O)n(CC(=O)NCC3CC3)n2)s1,-23.3
3,CNC(=O)CCc1cc(C)nc(C2CCCN2)c1 (stereo not drawn),-13.7
4,COCCN1CCC(Cc2cncc(-c3ccc(C(=O)O)cc3)n2)C1 (stereo not drawn),-11.8
5,NCc1cnn(-c2ccccc2C(=O)NCc2ccncc2)c1,-8.5
6,Cc1ncc(CNC(=O)Cc2ccc(Cl)cc2)c(C2CCCN2C)n1 (stereo not drawn),-16.7
7,CCCn1ncc(CN2C[C@@H]3CCCN3C[C@@H]2CCSC)c1C,8.56
8,CN(C)C(=O)C1(CCCc2ccncc2)CCCN1 (stereo not drawn),9.48
9,Nc1cc(N2CCCC2c2cnccn2)ncn1 (stereo not drawn),-7.75
10,NC(=O)C1CN(Cc2c[nH]cn2)CCN(C2CCOCC2)C1 (stereo not drawn),-9.19
11,c1cc2nccc(CC3CCCN(Cc4ncc[nH]4)CC3)c2cn1 (stereo not drawn),-7.89
12,COCC(=O)N1CCC(c2noc3nc(C)cc(C(F)(F)F)c23)CC1,24.6
13,CC(=O)N1CCN(c2cc(C3CN(C)CCO3)nc(C)n2)CC1 (stereo not drawn),-11.6
14,CN(Cc1nc(C(F)(F)F)cs1)C(=O)CCc1ccccn1,-1.82
15,CC(=O)N1CC(C)CN(C(=O)c2cscn2)c2ccccc21 (stereo not drawn),2.08
16,CC(=O)N1CC(C)CN(C(=O)c2cccnc2C)c2ccccc21 (stereo not drawn),-7.8
17,Cc1cccc(Oc2ccccc2CNC(=O)C2CCC(=O)NC2)c1 (stereo not drawn),-10.6
18,O=C1CCN(C(=O)NCCc2c[nH]c3ccc(Cl)cc23)CCN1,-8.44
19,COC(=O)c1cc(CN2CCC(c3noc(C)n3)CC2)c(C)s1,2.05
20,Cc1cccc(Oc2ccccc2CNC(=O)C2CCNC(=O)C2)c1 (stereo not drawn),-6.18
21,COC(=O)c1ccc(CN2CCC(c3noc(C)n3)CC2)s1,-8.54
22,Cc1ccc(CNC(=O)C2CCNC(=O)C2)c(OCCC(C)C)c1 (stereo not drawn),0.635
23,COC(=O)c1ccc(CN2CCN(Cc3nc(C)no3)CC2)s1,-7.55
24,O=C(c1cc(F)cc(F)c1)N1CCC(O)(C(F)(F)F)CC1,19.9

row,SMILES,cytotoxicity at 70.5 h [%]
1,COCCC(=O)N(C)Cc1nc(C(F)(F)F)cs1,-1.8
2,CCSCc1ccc(C(=O)N2CCCN(CC)CC2)cc1,-10.3
3,CCOc1ccc(SCCNS(=O)(=O)CC)cc1,-11.3
4,CN(CCOc1cccc(S(C)(=O)=O)c1)CC(F)F,-10.4
5,CN(CCOc1cccc(S(C)(=O)=O)c1)c1ccccc1,-2.26
6,COCCCN1CCN(CC2CCCO2)CC1 (stereo not drawn),22.5
7,Cn1cnc(S(=O)(=O)N2CCCc3c(F)cc(F)cc32)c1Cl,22.3
8,Cc1cc(F)c2c(c1)CCCN2S(=O)(=O)c1ncn(C)c1Cl,-0.387
9,Cc1nc(C)c(C(C)NCc2c(C)nn(C)c2N(C)C)s1 (stereo not drawn),-6.29
10,COCCCN1Cc2cccc(NC(=O)c3cc(F)cc(F)c3)c2C1,4.56
11,COCCCN1Cc2cccc(NC(=O)c3cc(F)ccc3F)c2C1,-9.4
12,N#CC1(NC(=O)c2cc(Cl)c3c(c2)OCCCO3)CCC1,-4.84
13,Cn1cc(-c2ncc(C(=O)NCCCn3ccccc3=O)s2)cn1,-10.1
14,Cc1cc(NC(=O)NCc2nncn2C)ccc1OC(C)C,22.5
15,O=C(NCCc1cc(F)ccc1F)NCC(O)C1CC1 (stereo not drawn),11.6
16,O=C(NCCCO)NCCc1cc(F)ccc1F,-0.605
17,O=C(O)c1cc(/C=C/c2ccccc2)ncn1,-5.54
18,CC1CN(C)c2ccccc2CN1CCn1cncn1 (stereo not drawn),-0.327
19,CC(Nc1ccc(C(F)(F)F)cc1C#N)c1cccc(S(N)(=O)=O)c1 (stereo not drawn),9.79
20,CC(Nc1c(F)cc(C#N)cc1F)c1cccc(S(N)(=O)=O)c1 (stereo not drawn),-9.34
21,COc1ccc(CN2CCn3cccc3C2C)cc1F (stereo not drawn),-3.79
22,COCCCN1Cc2cccc(NC(=O)c3ccccc3C)c2C1,15.2
23,CC(C)c1ocnc1C(=O)Nc1cccc(Cn2ccccc2=O)c1,19
24,O=C(NCc1cccnc1-n1cncn1)c1cc(Cl)ccn1,12.4

row,SMILES,cytotoxicity at 70.5 h [%]
1,COc1cc2c(cc1OC)CN(C(=O)NCC1CCCO1)CC2 (stereo not drawn),-3.43
2,c1csc(N2CCCN(c3ncnc4sccc34)CC2)n1,10.8
3,O=C(NCc1ccc(-n2cncn2)nc1)c1cc[nH]n1,-4.63
4,COc1ccc2c(c1)CCCN(C(=O)NCC1CCCO1)C2 (stereo not drawn),-8.68
5,COc1ccc(N2CCC(NC(=O)c3ccc(C#N)cc3)CC2)cc1,-4.31
6,Cc1ccc(CNC(C)(C)c2noc(C(C)(C)C)n2)o1,-1.89
7,COc1ncnc(N)c1CNCCc1ccccc1,-2.72
8,CC(C)OCCN1CCC(Nc2ncccn2)CC1,0.193
9,CN1CCC(NC(=O)c2cc(Cl)cc(Br)c2O)C1=O (stereo not drawn),-5.52
10,COc1ccsc1C(=O)NC1CCN(c2ccc(C#N)cc2)CC1,-5.67
11,CCN1CCN(C(=O)C2CCOC2)c2ccccc21 (stereo not drawn),21
12,CC(C)COc1cncc(N2CCCC(CC(N)=O)C2)n1 (stereo not drawn),-1.79
13,CCC(=O)NC1CCCN(c2cncc(OCc3ccccc3)n2)C1 (stereo not drawn),-0.318
14,NC(=O)CC1CCCN(c2cncc(OCc3ccccc3)n2)C1 (stereo not drawn),21.3
15,Cc1cnc(CCNC(=O)NCCc2ccc(O)cc2)s1,-3.5
16,CCc1nnc(C(C)N2CCN(CCC(C)(C)C)CC2)o1 (stereo not drawn),-7.09
17,CC1CN(c2ncnc3c2cnn3C)CCN1c1nccs1 (stereo not drawn),-4.86
18,COc1ccc(C(C)NCCc2ccc(NC(C)=O)cc2)c(OC)c1 (stereo not drawn),0.0966
19,COc1ccc(C(C)NCCc2ccc(NC(C)=O)cc2)cc1F (stereo not drawn),-4.18
20,CC(O)CN1CCN(Cc2coc(-c3cccc(Cl)c3)n2)CC1 (stereo not drawn),-1.14
21,OCCN1CCN(Cc2coc(-c3ccccc3Cl)n2)CC1,-19.7
22,COC(=O)c1ccc(C(=O)NCc2ccco2)nc1,-8.73
23,Cc1cc(C(=O)N2CCNC(=O)C2)c(C)n1Cc1ccccn1,-5.56
24,NC(=O)C(NC1CCN(CC2CCCCC2)CC1)c1ccccc1 (stereo not drawn),-4.82

row,SMILES,cytotoxicity at 70.5 h [%]
1,CN(C)CCCNc1ncnc2cccc(F)c12,15.7
2,O=C(O)c1ncccc1OCC(F)(F)F,-0.00705
3,CCn1cc(C(=O)NCC(OC)c2cccc(Cl)c2)cn1 (stereo not drawn),-2.35
4,CC(O)CN1CCN(C(=O)CCOC(C)C)CC1 (stereo not drawn),-3.79
5,COc1ccc(CN(C)CCS(=O)(=O)c2ccc(Cl)cc2)cc1OC,-12.9
6,COc1ccc(CCNC(=O)C(C)Nc2ccc(C)c(C)c2)cc1 (stereo not drawn),21
7,COc1ccc(CCNC(=O)C(C)Nc2cccc(C)c2C)cc1 (stereo not drawn),-4.88
8,CCN1CCN(C(C)CNC(=O)Nc2nnc(C(C)C)s2)CC1 (stereo not drawn),-12.4
9,Cc1nc(CN2CCN(C(=O)c3ccc(=O)n(C)c3)CC2)cs1,-2.46
10,CCCn1cc(NC(=O)c2ccc(N(C)CC)cc2)ccc1=O,-7.67
11,COc1cccc(CN(C)c2ncc(C(N)=O)cc2Cl)c1,-4.58
12,CN(Cc1ccc(C#N)cc1)c1ncc(C(N)=O)cc1Cl,-7.36
13,CCCn1cc(NC(=O)c2cccnc2O)ccc1=O,-1.07
14,COC(=O)c1sc2cccc(F)c2c1CNC(=O)C1CCCO1 (stereo not drawn),6.87
15,O=C(CCC1CCCC1)NCCn1nc(C2CCNC2)c2cccnc21 (stereo not drawn),-14.1
16,Cc1ccc2c(c1)CN(C(=O)C1CCCCC1)C(CN(C)C)CO2 (stereo not drawn),0.565
17,Cc1cc2c(=O)n3c(nc2s1)CCN(Cc1cnn(C)c1C)CC3,-11.8
18,Cc1cc(-c2cnc(N3CCCC(C)C3)nc2-c2cccnc2C)on1 (stereo not drawn),23.3
19,COc1ccc(OCCc2sc(C3(O)CCCNCC3)nc2C)cc1 (stereo not drawn),2.2
20,Cc1ccc(CN(CCCn2ccnc2)Cc2c[nH]cn2)s1,-0.992
21,COc1ccc(CN(Cc2cncn2C)CC2CCCO2)cc1OC (stereo not drawn),-10.3
22,Cc1cc(C[C@@H]2COC[C@H]2NCc2ccc(Br)s2)on1,22.3
